Results published in US5215744A, “Methods for the treatment of tumors” (Boehringer Ingelheim GmbH, priority 1987, dated 1993).
Entries after “also recorded” stand apart in the source; their conditions may differ. Where two headings read alike, the source gives them in different places.

Assays:
RSa cells = test: DNA synthetic activity test ([^3 H]dTHD uptake into acid insoluble materials); assay type: cell-based, human; conditions: for activity at 0.1 µM: Homo sapiens, 24 h, RSa cells, read-out: DNA synthesis (% of control)
Excerpt: Four established cell lines were used. These were MM-1CB, derived from tissues of malignant melanoma (level IV, pT4 N0 M0) in a person (Jpn. J. Dermatol. 96:947 (1986)); KT, derived from metastatic brain tumor in a person (J. Rad. Res. 26:59 (1985) and The 44th Meeting of Japanese Cancer Association, 718 (1985)); PLC/PRF/5, derived from human hepatoma (Brit. J. Cancer 34:509-515 (1976)) and a transformed cell line RSa (Virology 135:20-29 (1984), and J. Natl. Cancer Inst. 56:919-926 (1976)). [^3 H]dTHD uptake into acid insoluble materials were estimated in KT and RSa cells treated with the various agents, as described in J. Gen. Virol. […] 67:651-661 (1986).

KT cells [1] = test: as above; assay type: cell-based, human; conditions: 0.1 μM dipyridamole with HuIFN-β (FIG. 8)
Excerpt: Four established cell lines were used. These were MM-1CB, derived from tissues of malignant melanoma (level IV, pT4 N0 M0) in a person (Jpn. J. Dermatol. 96:947 (1986)); KT, derived from metastatic brain tumor in a person (J. Rad. Res. 26:59 (1985) and The 44th Meeting of Japanese Cancer Association, 718 (1985)); PLC/PRF/5, derived from human hepatoma (Brit. J. Cancer 34:509-515 (1976)) and a transformed cell line RSa (Virology 135:20-29 (1984), and J. Natl. Cancer Inst. 56:919-926 (1976)).
[^3 H]dTHD uptake into acid insoluble materials were estimated in KT and RSa cells treated with the various agents, as described in J. Gen. Virol. 67:651-661 (1986).

KT cells [2] = test: Microscopic study of morphology; assay type: cell-based, human; conditions: combination treatment, dipyridamole 0.1 μM and HuIFN-α 10 units/ml (FIG. 6)
Excerpt: (§1) Cells seeded in test dishes were observed and photographed using OLYMPUS IMT-2 ([…] amplification).

MM-1CB = test: Microscopic study of morphology; assay type: cell-based, human; conditions: dipyridamole 0.1 μM with HuIFN-β 10 units/ml, 6 days (FIG. 2)
Excerpt: as §1

PLC/PRF/5 cells = test: Microscopic study of morphology; assay type: cell-based, human; conditions: combination treatment, dipyridamole 0.1 μM and HuIFN-β 10 units/ml (FIG. 7)
Excerpt: as §1

[3] = tested on: antiviral activity in culture medium; test: Antiviral activity (IFN production) in culture medium of treated cells; assay type: cell-based; conditions: 0.1 μM dipyridamole-treated cells
Excerpt: Virol. 67:651-611 (1986).

MM-1CB cells [4] = test: Tumor growth in nude mice, treatment from 3 days after MM-1CB implantation; assay type: in vivo, human tumor cells in male athymic nude mice (BALB/cA JcL-nu); conditions: combination of dipyridamole and interferon, 3 days after injection, vs each agent alone (FIG. 9)
Experimental: Male athymic nude mice (BALB/cA JcL-nu) used were 4 week old and weighed 14 to 18 g at the beginning of the experiment. All mice were given a basal diet (FR-II, Funabashi Nojo Co., Ltd., Funabashi) ad libitum.
Control animals were treated with phosphate buffered saline.
On day 62 post tumor implantation the size of each tumor was measured by caliper (two dimensions) and the measurements were converted to an approximation of tumor weight employing the formula: (a×b^2)/2, where a and b are the length and width of tumor, respectively.

MM-1CB cells [5] = test: Growth rate of established tumors in nude mice; assay type: in vivo, human tumor cells in nude mice
Experimental: Growth rate of tumors after the apparent tumor appeared and then were treated with agents.
the two agents combination

DNA of MM-1CB cells = test: Alkaline sucrose gradient assay (DNA damage); assay type: cell-based, human; conditions: 10 μM dipyridamole 24 h then 10^3 IU/ml IFNβ 24 h (FIG. 12)
Experimental: Cells (2×10^5), prelabelled with [^14 C]Thymidine, were seeded in 60 mm culture dishes and then cultured with and without agents. After the indicated tie cells were scraped off from the dishes and suspended in ice-cold phosphate-buffer saline solution containing 10 mM EDTA.
The cell suspensions were then exposed to 100R of X-rays in order to facilitate the unwinding and separation of DNA strands, and the solution containing SDS was applied to the cells, 2% of the final concentration of sodium dodecil sulfate (SDS).
The cell lysates were layered on alkaline solution with 5-20% sucrose gradients containing 0.1M NaOH and 0.1M NaCl. Then the gradients were immediately centrifuged at 10,000 rpm for 17 hr at 20° C. in a Hitachi RPS55T rotor.
After centrifugation, solutions were fractionated and collected onto Whatmann 17 CHROMA paper strips. Radioactivity of acid-insoluble materials on the strips were counted in toluene based scintillator. The percentage of the total dpm in each fraction was calculated taking the input dpm as 100%.
C 10^3 IU/ml IFNβ exposure for 48 hr;

[6] = tested on: plasminogen activator-like protease; test: Protease activity after dipyridamole exposure (^125 I-fibrin release); assay type: cell-based, human (MM-1CB cells); conditions: dipyridamole alone; MM-1CB, 30 min (FIG. 13)
Excerpt: Assay methods were similar to those described elsewhere (Suzuki et al., Mutation Res. 198:207-214 (1988)). Results were expressed as the total amount of ^125 I-radioactivity released from the labelled fibrin per protein contents.

SEKI-F melanoma cells = test: Survival after continuous exposure to dipyridamole and interferon β; assay type: cell-based, human
Excerpt: Culture and the exposure conditions were the same as described in the previous manuscript.

[7] = tested on: MM-1CB, KT and PLC/PRF/5 cells; test: Anticellular action of HuIFN combined with dipyridamole (FIGS. 3-5); assay type: cell-based, human; conditions: FIGS. 3B, 4B and 5B
Experimental: Changes of medium with and without agents were carried out every other day. The viable cells were determined by trypan-blue exclusion test and counted with a hemocytometer. The survival percentage ratio was expressed as (counts of viable cells in test dishes per counts of viable cells in control dishes) x 100%, as described elsewhere in, e.g., Mutation Research 106:357-376 (1982) and […]. 67:651-661 (1986).

interferon effect = test: Enhancement of interferon effect in vitro; assay type: cell-based
[8] = several hours after administration; cited from earlier work
[9] = tested on: activity of N-phosphoracetyl-L-aspartate (PALA); conditions: in vitro and in vivo; cited from earlier work
[10] = tested on: chinese hamster ovary cells; conditions: in vitro and in vivo; cited from earlier work
metastasis = conditions: cited from earlier work
[11] = tested on: explanted mouse peritoneal leukocytes and other cells; conditions: in vitro; cited from earlier work
[12] = tested on: nucleoside transport through the cell membrane; conditions: cited from earlier work

Compound: OCCN(CCO)c1nc(N2CCCCC2)c2nc(N(CCO)CCO)nc(N3CCCCC3)c2n1 [dipyridamole, 2,6-bis(diethanolamine)-4,8-dipiperidino-pyrimido[5,4-d]pyrimidin]
- DNA synthesis inhibition, comparison in words (RSa cells; 0.1 μM dipyridamole or mopidamole, alone vs combined with HuIFN-α): inhibited less than with combined treatment with HuIFN-α; also recorded: significantly more effective than mopidamole/HuIFN-α
- activity at 0.1 µM (RSa cells; agent 0.1 μM combined with HuIFN-α 1 unit/ml): 61%
- activity at 0.1 µM (RSa cells; agent 0.1 μM, HuIFN-α 0 unit/ml): 92%
- enhancement of HuIFN inhibitory effect on DNA synthesis (KT cells [1]): remarkably enhanced
- cellular morphological conditions (KT cells [2]): showed impairment after the combination treatment
- cell morphology (MM-1CB): morphologically impaired
- cellular morphological conditions (PLC/PRF/5 cells): showed impairment after the combination treatment
- levels of antiviral activity in culture medium [3]: no detectable levels of antiviral activity
- inhibition of tumor growth (MM-1CB cells [4]): more noticeably inhibited
- depression of tumor growth, combination (MM-1CB cells [5]; two agents given after tumor reached more than about 1 cm in diameter (FIG. 10)): not drastically effective in depressing tumor growth
- effect of dipyridamole treatment prior to interferon (MM-1CB cells [5]; vs simultaneous administration (FIG. 10)): more effective than a simultaneous administration of the two agents
- DNA damage under alkaline assay conditions (DNA of MM-1CB cells): resulted in damaged DNA; also recorded: the most part DNA shifted into lower molecular mass
- activity of plasminogen activator-like protease [6]: induced after a few minutes of treatment
- inhibitory effect on cell proliferation (SEKI-F melanoma cells; dipyridamole alone (FIG. 14)): little inhibitory effect on cell proliferation
- enhancement of cell proliferation inhibition induced by interferon (SEKI-F melanoma cells; with interferon β 100-1000 IU/ml, 6 days (FIG. 14)): can enhance cell proliferation inhibition induced by interferon
- most effective concentration for the synergistic enhancement of HuIFN action [7]: less than 0.1 μM
- dose that enhances the interferon effect in vitro (interferon effect): less than 1 μM
- concentration in blood [8]: a few micromoles
- potentiation of PALA [9]: can potentiate the activity of N-phosphoracetyl-L-aspartate (PALA) in vitro and in vivo
- toxicity of methotrexate (MTX) [10]: enhanced the toxicity of methotrexate (MTX)
- metastatic effect (metastasis): potential metastatic effect
- interferon production [11]: induced interferon production in vitro in explanted mouse peritoneal leukocytes and other cells
- nucleoside transport [12]: can inhibit nucleoside transport through the cell membrane
